This is an account of results in patent US20230066011A1, “PYRROLOPYRIMIDINE DERIVATIVE, AND PHARMACEUTICAL COMPOSITION FOR PREVENTING OR TREATING PROTEIN KINASE-RELATED DISEASE COMPRISING SAME AS ACTIVE INGREDIENT” (VORONOI CO., LTD., priority 2019, published 2023).

Common to all, as to type: biochemical
One experiment concerns the target T1, human GST-DYRK1A (Homo sapiens, UniProt Q13627).
T1 construct: purified human GST-DYRK1A (full length, Thermo Scientifics) enzyme; purchased Thermo Scientifics
As to the kind of experiment: GST-DYRK1A enzyme inhibition, ADP-Glo kinase assay. The settings on record: ATP 10 μM, GST-DYRK1A full length, read-out: DYRK1 IC50. A digest of the protocol:
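Full-length human GST-DYRK1A (10 ng) with 10 μM ATP and specific substrate in 40 mM Tris-HCl pH 7.4, 20 mM MgCl2, 0.5 mg/mL BSA, 50 μM DTT, 1 h at 25 °C. ADP formation read by ADP-Glo luminescence relative to solvent control; IC50 from three data sets.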

For a further experiment, the target named is LRRK2 (Homo sapiens, UniProt Q5S007). As to the kind of experiment: LRRK2 enzyme inhibition, ADP-Glo kinase assay. Set-up: purchased Invitrogen PR8604B. The settings on record: ATP 10 μM. The protocol:
To evaluate an inhibitory activity of the compound according to the present invention against LRRK2, LRRK2 (G2019S), DYRK1, CLK1, and TTK kinases, experiments were performed as follows.
Each of the Example compounds was reacted with a purified human LRRK2 (Invitrogen #PR8604B) enzyme to evaluate an ability to inhibit an enzyme using a method as described below. A composition of 40 mM Tris-HCl (pH 7.4), 20 mM MgCl2, 0.5 mg/mL BSA, and 50 μM DTT was used as a reaction buffer, and all reactions of test substances were performed in the reaction buffer. Each of the compounds was diluted […] from a 10 mM DMSO stock using a serial dilution method, and enzyme activities were measured at final compound concentrations of 50, 10, 2, 0.4, 0.08, 0.016, 0.0032, 0.00064, 0.000128, 0.0000256, 0.00000512, and 0.000001024 μM. In the test, purified ATP (10 μM) and an enzyme substrate (0.2 μg) were reacted with a human LRRK2 (25 ng) enzyme at 25° C. for 2 hours, and the enzyme activities were determined using an in vitro ADP-Glo™ kinase assay (Promega). An enzyme-activity reaction solution, an ADP-Glo reaction solution, and an enzyme-ability detection solution were reacted at a ratio of 2:2:1 to measure a degree of inhibition of the enzyme activity with luminescence. The degree of inhibition of the enzyme activity according to the treatment concentration of each of the compounds was calculated based on the fluorescence of the enzyme activity of the solvent control which was not treated with the compound. In this case, the concentration of each of the compounds inhibiting 50% of the enzyme activity was determined to be an IC50 (nM) value, and calculated using Prism (Version 5.01; GraphPad) software.

For a further experiment, the target named is T2, human GST-CLK1 (Homo sapiens, UniProt P49759).
T2 construct: purified human GST-CLK1 (129-end, SignalChem) enzyme; purchased SignalChem
As to the kind of experiment: GST-CLK1 enzyme inhibition, ADP-Glo kinase assay. The settings on record: ATP 10 μM, GST-CLK1 129-end. A digest of the protocol:
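Human GST-CLK1 (129-end, 3 ng) reacted with substrate and 10 μM ATP for 1 h at 25° C in 40 mM Tris-HCl pH 7.4, 20 mM MgCl2, 0.5 mg/mL BSA, 50 μM DTT. ADP-Glo luminescence was normalised to solvent control; IC50 (nM) from 3 data sets.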

The target of the next experiment is LRRK2 (G2019S) (Homo sapiens, UniProt Q5S007, G2019S). As to the kind of experiment: LRRK2 G2019S enzyme inhibition, ADP-Glo kinase assay. Also noted: purchased SignalChem L10-12GG. The settings on record: ATP 25 μM. A digest of the protocol: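 Purified human LRRK2 G2019S (16 ng) with 25 μM ATP and 0.2 μg substrate, 2 h at 25° C. in Tris-HCl pH 7.4, MgCl2, BSA, DTT buffer; compounds at 12 final concentrations, 50 μM down to 0.000001024 μM. ADP-Glo luminescence versus solvent control gave IC50.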
Sequence of LRRK2 (G2019S) (Q5S007 970-2527 G2019S limits assumed): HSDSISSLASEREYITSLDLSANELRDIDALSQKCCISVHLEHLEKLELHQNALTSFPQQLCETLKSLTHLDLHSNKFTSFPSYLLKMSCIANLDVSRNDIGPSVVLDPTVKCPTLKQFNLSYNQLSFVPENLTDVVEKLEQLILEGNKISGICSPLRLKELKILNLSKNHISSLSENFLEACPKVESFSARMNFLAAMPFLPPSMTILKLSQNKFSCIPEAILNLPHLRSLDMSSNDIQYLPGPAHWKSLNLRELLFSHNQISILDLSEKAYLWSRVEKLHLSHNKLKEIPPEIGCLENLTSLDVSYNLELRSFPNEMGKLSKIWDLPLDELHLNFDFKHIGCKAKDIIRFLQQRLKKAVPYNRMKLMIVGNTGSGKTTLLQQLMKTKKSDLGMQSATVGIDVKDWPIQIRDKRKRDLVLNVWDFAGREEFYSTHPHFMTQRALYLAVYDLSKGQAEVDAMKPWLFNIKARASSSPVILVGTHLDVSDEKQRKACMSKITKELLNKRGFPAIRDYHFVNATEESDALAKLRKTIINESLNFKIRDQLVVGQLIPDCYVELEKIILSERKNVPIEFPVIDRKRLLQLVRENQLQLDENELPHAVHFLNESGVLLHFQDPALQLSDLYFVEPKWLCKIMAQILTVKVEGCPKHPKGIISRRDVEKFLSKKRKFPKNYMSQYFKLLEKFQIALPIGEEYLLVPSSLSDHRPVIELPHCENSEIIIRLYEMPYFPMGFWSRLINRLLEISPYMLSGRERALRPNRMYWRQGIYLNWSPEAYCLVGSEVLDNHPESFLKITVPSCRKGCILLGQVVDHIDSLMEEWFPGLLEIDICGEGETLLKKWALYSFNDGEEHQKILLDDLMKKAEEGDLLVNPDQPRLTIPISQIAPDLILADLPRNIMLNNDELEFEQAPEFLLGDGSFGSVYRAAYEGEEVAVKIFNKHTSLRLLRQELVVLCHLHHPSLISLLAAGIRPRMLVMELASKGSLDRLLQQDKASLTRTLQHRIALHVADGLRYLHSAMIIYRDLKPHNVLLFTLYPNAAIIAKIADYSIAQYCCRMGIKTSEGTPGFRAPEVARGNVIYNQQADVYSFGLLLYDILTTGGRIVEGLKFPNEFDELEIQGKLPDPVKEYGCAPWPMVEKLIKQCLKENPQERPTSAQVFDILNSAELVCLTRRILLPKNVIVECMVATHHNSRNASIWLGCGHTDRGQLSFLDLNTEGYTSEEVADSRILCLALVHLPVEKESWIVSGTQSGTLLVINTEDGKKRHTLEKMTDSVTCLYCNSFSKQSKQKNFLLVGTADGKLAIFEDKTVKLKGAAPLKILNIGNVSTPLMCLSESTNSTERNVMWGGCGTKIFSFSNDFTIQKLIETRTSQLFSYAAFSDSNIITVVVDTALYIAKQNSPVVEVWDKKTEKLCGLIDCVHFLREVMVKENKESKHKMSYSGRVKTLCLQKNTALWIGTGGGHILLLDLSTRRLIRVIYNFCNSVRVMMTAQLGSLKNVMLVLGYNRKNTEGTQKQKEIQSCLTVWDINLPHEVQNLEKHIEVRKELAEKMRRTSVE

Sequence of LRRK2 (Q5S007 970-2527 limits assumed): as the sequence (Q5S007 970-2527 G2019S limits assumed) above, with S1050G counted along it
T2 sequence (P49759 129-484 limits assumed): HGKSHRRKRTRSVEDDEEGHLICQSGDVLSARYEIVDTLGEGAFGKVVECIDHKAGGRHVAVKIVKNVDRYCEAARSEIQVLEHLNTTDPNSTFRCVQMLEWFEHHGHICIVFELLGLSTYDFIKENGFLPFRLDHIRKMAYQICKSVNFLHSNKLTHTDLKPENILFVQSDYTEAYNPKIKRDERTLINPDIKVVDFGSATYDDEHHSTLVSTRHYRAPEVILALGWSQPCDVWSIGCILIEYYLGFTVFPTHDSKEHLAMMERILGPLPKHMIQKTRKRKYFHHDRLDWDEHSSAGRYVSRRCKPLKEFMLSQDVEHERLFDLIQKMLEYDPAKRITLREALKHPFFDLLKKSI

Turning to `COc1cc(S(=O)(=O)N2CCC(N3CCOCC3)CC2)ccc1Nc1nc(NCC2CCC2)c2c(C#N)c[nH]c2n1` [Example 94, 4-((cyclobutylmethyl)amino)-2-((2-methoxy-4-((4-morpholinopiperidin-1-yl)sulfonyl)phenyl)amino)-7H-pyrrolo[2,3-d]pyrimidine-5-carbonitrile], the results for the IC50 at human GST-DYRK1A, against LRRK2 and against human GST-CLK1 were 301 to 1000 nM, less than 100 nM and 301 to 1000 nM, respectively.

For `COc1cc(S(C)(=O)=O)ccc1Nc1nc(NC2CCOCC2)c2c(C#N)c[nH]c2n1` [Example 109, 2-((2-methoxy-4-(methylsulfonyl)phenyl)amino)-4-((tetrahydro-2H-pyran-4-yl)amino)-7H-pyrrolo[2,3-d]pyrimidine-5-carbonitrile], the IC50 was 301 to 1000 nM at human GST-DYRK1A, less than 100 nM on LRRK2 and 301 to 1000 nM against human GST-CLK1.

As for `COCC(C)(C)Nc1nc(Nc2ccc(S(C)(=O)=O)cc2OC)nc2[nH]cc(C#N)c12` [Example 111, 4-((1-methoxy-2-methylpropan-2-yl)amino)-2-((2-methoxy-4-(methylsulfonyl)phenyl)amino)-7H-pyrrolo[2,3-d]pyrimdiine-5-carobnitrile], the IC50 is 301 to 1000 nM on human GST-DYRK1A, less than 100 nM against LRRK2 and 301 to 1000 nM at human GST-CLK1.

For `COc1cc(S(C)(=O)=O)ccc1Nc1nc(NCC2CCC2)c2c(C#N)c[nH]c2n1` [Example 112, 4-((cyclobutylmethyl)amino)-2-((2-methoxy-4-(methylsulfonyl)phenyl)amino)-7H-pyrrolo[2,3-d]pyrimidine-5-carbonitrile], the IC50 is 301 to 1000 nM on human GST-DYRK1A, less than 100 nM against LRRK2 and 301 to 1000 nM at human GST-CLK1.

Turning to `COc1cc(S(C)(=O)=O)ccc1Nc1nc(NCC2CCCC2)c2c(C#N)c[nH]c2n1` [Example 113, 4-((cyclopentylmethyl)amino)-2-((2-methoxy-4-(methylsulfonyl)phenyl)amino)-7H-pyrrolo[2,3-d]pyrimidine-5-carbonitrile], the IC50 was 301 to 1000 nM at human GST-DYRK1A, less than 100 nM against LRRK2 and 301 to 1000 nM on human GST-CLK1.

As for `COCC(C)(C)Nc1nc(Nc2ccc(C(=O)N3CCOCC3)c3c2OCCO3)nc2[nH]cc(C#N)c12` [Example 131, 4-((1-methoxy-2-methylpropan-2-yl)amino)-2-((8-(morpholine-4-carbonyl)-2,3-dihydrobenzo[b][1,4]dioxin-5-yl)amino)-7H-pyrrolo[2,3-d]pyrimidine-5-carbonitrile], the figures for the IC50 on human GST-DYRK1A, at LRRK2 and on human GST-CLK1 were 301 to 1000 nM, less than 100 nM and less than 100 nM, respectively.

For `N#Cc1c[nH]c2nc(Nc3ccc(C(=O)N4CCOCC4)c4c3OCCO4)nc(NCC3CCC3)c12` [Example 132, 4-((cyclobutylmethyl)amino)-2-((8-(morpholine-4-carbonyl)-2,3-dihydrobenzo[b][1,4]dioxin-5-yl)amino)-7H-pyrrolo[2,3-d]pyrimidine-5-carbonitrile], the IC50 was 301 to 1000 nM at human GST-DYRK1A, less than 100 nM against LRRK2 and 301 to 1000 nM against human GST-CLK1.

Take `CC(C)Nc1nc(Nc2ccc(C(=O)N3CCC(N4CCOCC4)CC3)c3c2OCCO3)nc2[nH]cc(C#N)c12` [Example 140, 4-(isopropylamino)-2-((8-(4-morpholinopiperidine-1-carbonyl)-2,3-dihydrobenzo[b][1,4]dioxin-5-yl)amino)-7H-pyrrolo[2,3-d]pyrimidine-5-carbonitrile]: the IC50 on human GST-DYRK1A was 301 to 1000 nM; against LRRK2, less than 100 nM; on human GST-CLK1, less than 100 nM.

`CC(C)CNc1nc(Nc2ccc(C(=O)N3CCOCC3)c3c2OCCO3)nc2[nH]cc(C(F)(F)F)c12` [Example 169, (8-((4-(isobutylamino)-5-(trifluoromethyl)-7H-pyrrolo[2,3-d]pyrimidin-2-yl)amino)-2,3-dihydrobenzo[b][1,4]dioxin-5-yl)(morpholino)methanone]: the results for the IC50 on human GST-DYRK1A, at LRRK2 and on human GST-CLK1 were 301 to 1000 nM, less than 100 nM and 301 to 1000 nM, respectively.

Consider `CC[C@@H](C)Nc1nc(Nc2ccc(S(C)(=O)=O)cc2OC)nc2[nH]cc(C(F)(F)F)c12` [Example 173, (R)-N^4-(sec-butyl)-N^2-(2-methoxy-4-(methyslulfonyl)phenyl)-5-(trifluoromethyl)-7H-pyrrolo[2,3-d]pyrimidine-2,4-diamine], for which the IC50 at human GST-DYRK1A is 301 to 1000 nM; on LRRK2, less than 100 nM; on human GST-CLK1, 301 to 1000 nM.

For `COc1cc(S(C)(=O)=O)ccc1Nc1nc(NC2CCCC2)c2c(C(F)(F)F)c[nH]c2n1` [Example 188, N^4-cyclopentyl-N^2-(2-methoxy-4-(methylsulfonyl)phenyl)-5-(trifluoromethyl)-7H-pyrrolo[2,3-d]pyrimidine-2,4-diamine], the IC50 on human GST-DYRK1A, on LRRK2 and at human GST-CLK1 was 301 to 1000 nM each time.

For `O=C(c1ccc(Nc2nc(NC3CCCC3)c3c(C(F)(F)F)c[nH]c3n2)c2c1OCCO2)N1CCOCC1` [Example 189, (8-((4-(cyclopentylamino)-5-(trifluoromethyl)-7H-pyrrolo[2,3-d]pyrimidin-2-yl)amino)-2,3-dihydrobenzo[b][1,4]dioxin-5-yl)(morpholino)methanone], the IC50 on human GST-DYRK1A was 101 to 300 nM; on LRRK2, less than 100 nM; at human GST-CLK1 it was 101 to 300 nM.

For the molecule `O=C(c1ccc(Nc2nc(NC3CCCCC3)c3c(C(F)(F)F)c[nH]c3n2)c2c1OCCO2)N1CCOCC1` [Example 190, (8-((4-(cyclohexylamino)-5-(trifluoromethyl)-7H-pyrrolo[2,3-d]pyrimidin-2-yl)amino)-2,3-dihydrobenzo[b][1,4]dioxin-5-yl)(morpholino)methanone], the figures for the IC50 at human GST-DYRK1A, at LRRK2 and on human GST-CLK1 were 301 to 1000 nM, less than 100 nM and 301 to 1000 nM, respectively.

`CNc1nc(Nc2ccc(C(=O)N3CCOCC3)c3c2OCO3)nc2[nH]cc(C(F)(F)F)c12` [Example 214, (7-((4-(methylamino)-5-(trifluoromethyl)-7H-pyrrolo[2,3-d]pyrimidin-2-yl)amino)benzo[d][1,3]dioxol-4-yl)(morpholino)methanone]: the IC50 on human GST-DYRK1A, against LRRK2 and at human GST-CLK1 was less than 100 nM throughout.

On to `CNc1nc(Nc2ccc(C(=O)N3CCC(N4CCOCC4)CC3)c3c2OCO3)nc2[nH]cc(C(F)(F)F)c12` [Example 215, (7-((4-(methylamino)-5-(trifluoromethyl)-7H-pyrrolo[2,3-d]pyrimidin-2-yl)amino)benzo[d][1,3]dioxol-4-yl)(4-morpholinopiperidin-1-yl)methanone], for which the half-maximal inhibitory concentration (IC50) on human GST-DYRK1A is 101 to 300 nM; at LRRK2, less than 100 nM; at human GST-CLK1, 101 to 300 nM.

For `COc1cc(S(C)(=O)=O)ccc1Nc1nc(C2CC2)c2c(C#N)c[nH]c2n1` [Example 222, 4-cyclopropyl-2-((2-methoxy-4-(methylsulfonyl)phenyl)amino)-7H-pyrrolo[2,3-d]pyrimidine-5-carbonitrile], the IC50 on human GST-DYRK1A was 301 to 1000 nM; at LRRK2 it was less than 100 nM; against human GST-CLK1, 301 to 1000 nM.

Take `COCCNc1nc(Nc2ccc(C(=O)N3CCC(N4CCOCC4)CC3)c3c2OCCO3)nc2[nH]cc(C#N)c12` [Example 256, 4-((2-methoxyethyl)amino)-2-((8-(4-morpholinopiperidine-1-carbonyl)-2,3-dihydrobenzo[b][1,4]dioxin-5-yl)amino)-7H-pyrrolo[2,3-d]pyrimidine-5-carbonitrile]: the IC50 at human GST-DYRK1A, against LRRK2 and at human GST-CLK1 was less than 100 nM in each case.

In the case of `CCCCNc1nc(Nc2ccc(C(=O)N3CCOCC3)c3c2OCC3)nc2[nH]cc(C(F)(F)F)c12` [Example 465, (7-((4-(butylamino)-5-(trifluoromethyl)-7H-pyrrolo[2,3-d]pyrimidin-2-yl)amino)-2,3-dihydrobenzo-furan-4-yl) (morpholino) methanone], the IC50 on human GST-DYRK1A was 301 to 1000 nM; against LRRK2 (G2019S) it was less than 100 nM; against human GST-CLK1 it was 301 to 1000 nM.
